The target in the experiment is Anti-alpha galactosyl IgG antibody. Put plainly: ELISA assay: streptavidin-captured biotin compound, binding of anti-alpha galactosyl IgG antibody. Further details: species or system human. The conditions noted are these: geometric mean with standard error in brackets; streptavidin plate, anti-alpha galactosyl IgG 0.5 μg/mL; read-out: Concentration at half maximal binding. The procedure:
Compounds containing F (representing a carbohydrate molecule capable of binding to a human anti-alpha-galactosyl antibody) and L (as biotin) were assayed for binding at both ends of the compound using an enzyme-linked immunosorbent assay (ELISA). Streptavidin-coated plates captured biotin to the surface of the plate and the binding of anti-alpha galactosyl antibodies to the alpha-galactosyl moiety was reported by a secondary antibody labelled with HRP (Horse Radish Peroxidase).
Compounds were titrated 1.5 fold from a top dose of 50 nM in phosphate buffered saline (PBS) (Sigma D8537)+0.025% DMSO (Dimethyl Sulphoxide, Sigma D8418). Streptavidin immobilizer 96-well plates (nunc 436014) were coated with 100 μL of compound at room temperature for 2 hours shaking at 500 rpm. Plates were washed with 2×200 μL PBS-T (PBS with 0.05% Tween 20 (Sigma P9416)) and 1×200 μL PBS-T with a 5 minute incubation shaking at room temperature, prior to being blocked for 1 hour at room temperature with 1% Bovine Serum Albumin (BSA, Sigma A2153) in PBS-T. After removing the blocking buffer, 50 μL of Anti-alpha galactosyl IgG antibody (Anti-alpha-galactosyl antibody was purified from human IVIG (Gammagard) by affinity purification using an alpha-galactosyl-HSA (Human Serum Albumin) sepharose column by Rockland Immunochemicals Inc.) at 0.5 μg/mL in PBS-T+1% BSA and incubated shaking at room temperature for 1 hour.
Plates were washed 2×200 μL PBS-T and 3×200 μL PBS-T with a 5 minute incubation, shaking at room temperature before the addition of 50 μL 1:5000 Goat Anti-Human IgG-HRP (horseradish peroxidase) conjugate (Abcam ab97175). The plates were incubated shaking at room temperature for 1 hour before a final wash of 2×200 μL PBS-T and 3×200 μl PBS-T with a 5 minute incubation shaking at room temperature. 100 μL TMB buffer (3,3′,5,5′-tetramethylbenzidine, a chromogenic substrate for horseradish peroxidase) (Pierce 34021) was added to the plate and allowed to develop for 5-10 minutes before the samples were quenched with 50 μL 2M sulfuric acid (Sigma 258105). The absorbance was read at 450 nm on an Envision plate reader (Perkin Elmer). Results from wells (duplicate) were averaged and the 50% binding affinity calculated.
The concentration at which half-maximal binding is achieved is reported as a geometric mean with standard error in brackets. The number of independent experiments is also reported. In order to achieve a signal both ends of the molecule are required to bind (biotin to streptavidin and alpha-galactosyl to anti-alpha galactosyl antibodies) simultaneously.

SMILES strings stand for the structures.

Regarding `CC(=O)N[C@H]1[C@H](OCCCNC(=O)COc2cccc(C(=O)NCCNC(=O)CCCC[C@@H]3SC[C@@H]4NC(=O)N[C@@H]43)c2)O[C@H](CO)[C@@H](O[C@@H]2O[C@H](CO)[C@H](O)[C@H](O[C@H]3O[C@H](CO)[C@H](O)[C@H](O)[C@H]3O)[C@H]2O)[C@@H]1O` [Example 2, 3-(2-((3-(((2R,3R,4R,5S,6R)-3-Acetamido-5-(((2S,3R,4S,5S,6R)-3,5-dihydroxy-6-(hydroxymethyl)-4-(((2R,3R,4S,5R,6R)-3,4,5-trihydroxy-6-(hydroxymethyl)tetrahydro-2H-pyran-2-yl)oxy)tetrahydro-2H-pyran-2-yl)oxy)-4-hydroxy-6-(hydroxymethyl)tetrahydro-2H-pyran-2-yl)oxy)propyl)amino)-2-oxoethoxy)-N-(2-(5-((3aS,4S,6aR)-2-oxohexahydro-1H-thieno[3,4-d]imidazol-4-yl)pentanamido)ethyl)benzamide], the EC50 was determined as 21.2 nM. The result for `CC(=O)N[C@H]1[C@H](OCCCNC(=O)CCCCC(=O)NCc2cccc(C(=O)NCCNC(=O)CCCC[C@@H]3SC[C@@H]4NC(=O)N[C@@H]43)c2)O[C@H](CO)[C@@H](O[C@@H]2O[C@H](CO)[C@H](O)[C@H](O[C@H]3O[C@H](CO)[C@H](O)[C@H](O)[C@H]3O)[C@H]2O)[C@@H]1O` [Example 13, N^1-(3-(((2R,3R,4R,5S,6R)-3-Acetamido-5-(((2S,3R,4S,5S,6R)-3,5-dihydroxy-6-(hydroxymethyl)-4-(((2R,3R,4S,5R,6R)-3,4,5-trihydroxy-6-(hydroxymethyl)tetrahydro-2H-pyran-2-yl)oxy)tetrahydro-2H-pyran-2-yl)oxy)-4-hydroxy-6-(hydroxymethyl)tetrahydro-2H-pyran-2-yl)oxy)propyl)-N6-(3-((2-(5-((3aS,4S,6aR)-2-oxohexahydro-1H-thieno[3,4-d]imidazol-4-yl)pentanamido)ethyl)carbamoyl)benzyl)adipamide] reads 37.3 nM.

`CC(=O)N[C@H]1[C@H](OCCCNC(=O)c2cccc(OCC(=O)NCCNC(=O)CCCC[C@@H]3SC[C@@H]4NC(=O)N[C@@H]43)c2)O[C@H](CO)[C@@H](O[C@@H]2O[C@H](CO)[C@H](O)[C@H](O[C@H]3O[C@H](CO)[C@H](O)[C@H](O)[C@H]3O)[C@H]2O)[C@@H]1O` [Example 4, N-(3-(((2R,3R,4R,5S,6R)-3-Acetamido-5-(((2S,3R,4S,5S,6R)-3,5-dihydroxy-6-(hydroxymethyl)-4-(((2R,3R,4S,5R,6R)-3,4,5-trihydroxy-6-(hydroxymethyl)tetrahydro-2H-pyran-2-yl)oxy)tetrahydro-2H-pyran-2-yl)oxy)-4-hydroxy-6-(hydroxymethyl)tetrahydro-2H-pyran-2-yl)oxy)propyl)-3-(2-oxo-2-((2-(5-((3aS,4S,6aR)-2-oxohexahydro-1H-thieno[3,4-d]imidazol-4-yl)pentanamido)ethyl)amino)ethoxy)benzamide]: the EC50 is 13.1 nM. Turning to `CC(=O)NC1C(OCCCNC(=O)CCOCCOCCOCCOCCNC(=O)COc2cc(OCC(=O)NCCOCCOCCOCCOCCC(=O)NCCCOC3OC(CO)C(OC4OC(CO)C(O)C(OC5OC(CO)C(O)C(O)C5O)C4O)C(O)C3NC(C)=O)cc(-c3cc(OCC(=O)NCCOCCOCCOCCOCCC(=O)NCCCOC4OC(CO)C(OC5OC(CO)C(O)C(OC6OC(CO)C(O)C(O)C6O)C5O)C(O)C4NC(C)=O)cc(C(=O)NCCOCCOCCOCCOCCC(=O)NCCNC(=O)CCCCC4SCC5NC(=O)NC54)c3)c2)OC(CO)C(OC2OC(CO)C(O)C(OC3OC(CO)C(O)C(O)C3O)C2O)C1O` (centres unmarked) [Example 58], the EC50 is 37.6 nM. As for `CC(=O)N[C@H]1[C@H](OCCCNC(=O)COc2ccc(C(=O)NCCNC(=O)CCCC[C@@H]3SC[C@@H]4NC(=O)N[C@@H]43)cc2)O[C@H](CO)[C@@H](O[C@@H]2O[C@H](CO)[C@H](O)[C@H](O[C@H]3O[C@H](CO)[C@H](O)[C@H](O)[C@H]3O)[C@H]2O)[C@@H]1O` [Example 8, 4-(2-((3-(((2R,3R,4R,5S,6R)-3-Acetamido-5-(((2S,3R,4S,5S,6R)-3,5-dihydroxy-6-(hydroxymethyl)-4-(((2R,3R,4S,5R,6R)-3,4,5-trihydroxy-6-(hydroxymethyl)tetrahydro-2H-pyran-2-yl)oxy)tetrahydro-2H-pyran-2-yl)oxy)-4-hydroxy-6-(hydroxymethyl)tetrahydro-2H-pyran-2-yl)oxy)propyl)amino)-2-oxoethoxy)-N-(2-(5-((3aS,4S,6aR)-2-oxohexahydro-1H-thieno[3,4-d]imidazol-4-yl)pentanamido)ethyl)benzamide], the figure is 28.8 nM; as for `CC(=O)NC1C(OCCCNC(=O)COc2cc(OCC(=O)NCCCOC3OC(CO)C(OC4OC(CO)C(O)C(OC5OC(CO)C(O)C(O)C5O)C4O)C(O)C3NC(C)=O)cc(C(=O)NCCNC(=O)CCOCCOCCOCCOCCOCCOCCOCCOCCOCCOCCOCCOCCNC(=O)CCCCC3SCC4NC(=O)NC43)c2)OC(CO)C(OC2OC(CO)C(O)C(OC3OC(CO)C(O)C(O)C3O)C2O)C1O` [Example 6, 1-{5-[(3aS,4S,6aR)-2-Oxo-hexahydro-1H-thieno[3,4-d]imidazolidin-4-yl]pentanamido}-N-(2-{[3,5-bis({[(3-{[(2R,5S)-5-{[(2S,5S)-3,5-dihydroxy-6-(hydroxymethyl)-4-{[(2R,5R)-3,4,5-trihydroxy-6-(hydroxymethyl)oxan-2-yl]oxy}oxan-2-yl]oxy}-3-acetamido-4-hydroxy-6-(hydroxymethyl)oxan-2-yl]oxy}propyl)carbamoyl]methoxy})phenyl]formamido}ethyl)-3,6,9,12,15,18,21,24,27,30,33,36-dodecaoxanonatriacontan-39-amide], 5.8 nM; as for `CC(=O)NC1C(OCCCNC(=O)CCOCCOCCOCCOCCOCCOCCOCCOCCOCCOCCOCCOCCNC(=O)COc2ccc(-c3cc(OCC(=O)NCCOCCOCCOCCOCCOCCOCCOCCOCCOCCOCCOCCOCCC(=O)NCCCOC4OC(CO)C(OC5OC(CO)C(O)C(OC6OC(CO)C(O)C(O)C6O)C5O)C(O)C4NC(C)=O)cc(C(=O)NCCNC(=O)CCCCC4SCC5NC(=O)NC54)c3)cc2)OC(CO)C(OC2OC(CO)C(O)C(OC3OC(CO)C(O)C(O)C3O)C2O)C1O` (centres unmarked) [Example 49], 26.4 nM. The result for `CC(=O)NC1C(OCCCNC(=O)CCOCCOCCOCCOCCNC(=O)COc2cc(OCC(=O)NCCOCCOCCOCCOCCC(=O)NCCCOC3OC(CO)C(OC4OC(CO)C(O)C(OC5OC(CO)C(O)C(O)C5O)C4O)C(O)C3NC(C)=O)cc(-c3cc(C(=O)NCCNC(=O)CCCCC4SCC5NC(=O)NC54)c(OCC(=O)NCCOCCOCCOCCOCCC(=O)NCCCOC4OC(CO)C(OC5OC(CO)C(O)C(OC6OC(CO)C(O)C(O)C6O)C5O)C(O)C4NC(C)=O)cc3OCC(=O)NCCOCCOCCOCCOCCC(=O)NCCCOC3OC(CO)C(OC4OC(CO)C(O)C(OC5OC(CO)C(O)C(O)C5O)C4O)C(O)C3NC(C)=O)c2)OC(CO)C(OC2OC(CO)C(O)C(OC3OC(CO)C(O)C(O)C3O)C2O)C1O` (centres unmarked) [Example 51] reads 19.7 nM; that for `CC(=O)N[C@H]1[C@H](OCCCNC(=O)COc2ccc(-c3cccc(C(=O)NCCNC(=O)CCCC[C@@H]4SC[C@@H]5NC(=O)N[C@@H]54)c3)cc2)O[C@H](CO)[C@@H](O[C@@H]2O[C@H](CO)[C@H](O)[C@H](O[C@H]3O[C@H](CO)[C@H](O)[C@H](O)[C@H]3O)[C@H]2O)[C@@H]1O` [Example 11], 19 nM; that for `CC(=O)NC1C(OCCCNC(=O)CCOCCOCCOCCOCCOCCOCCOCCOCCOCCOCCOCCOCCNC(=O)COc2cc(OCC(=O)NCCOCCOCCOCCOCCOCCOCCOCCOCCOCCOCCOCCOCCC(=O)NCCCOC3OC(CO)C(OC4OC(CO)C(O)C(OC5OC(CO)C(O)C(O)C5O)C4O)C(O)C3NC(C)=O)cc(-c3cc(OCC(=O)NCCOCCOCCOCCOCCOCCOCCOCCOCCOCCOCCOCCOCCC(=O)NCCCOC4OC(CO)C(OC5OC(CO)C(O)C(OC6OC(CO)C(O)C(O)C6O)C5O)C(O)C4NC(C)=O)cc(C(=O)NCCNC(=O)CCOCCOCCOCCOCCOCCOCCOCCOCCOCCOCCOCCOCCNC(=O)CCCCC4SCC5NC(=O)NC54)c3)c2)OC(CO)C(OC2OC(CO)C(O)C(OC3OC(CO)C(O)C(O)C3O)C2O)C1O` (centres unmarked) [Example 57], 15.4 nM. The result for `CC(=O)N[C@H]1[C@H](OCCCNC(=O)COc2cc(OCC(=O)NCCCO[C@@H]3O[C@H](CO)[C@@H](O[C@@H]4O[C@H](CO)[C@H](O)[C@H](O[C@H]5O[C@H](CO)[C@H](O)[C@H](O)[C@H]5O)[C@H]4O)[C@H](O)[C@H]3NC(C)=O)cc(-c3cc(OCC(=O)NCCCO[C@@H]4O[C@H](CO)[C@@H](O[C@@H]5O[C@H](CO)[C@H](O)[C@H](O[C@H]6O[C@H](CO)[C@H](O)[C@H](O)[C@H]6O)[C@H]5O)[C@H](O)[C@H]4NC(C)=O)cc(C(=O)NCCNC(=O)CCCC[C@@H]4SC[C@@H]5NC(=O)N[C@@H]54)c3)c2)O[C@H](CO)[C@@H](O[C@@H]2O[C@H](CO)[C@H](O)[C@H](O[C@H]3O[C@H](CO)[C@H](O)[C@H](O)[C@H]3O)[C@H]2O)[C@@H]1O` [Example 1] reads 8.2 nM.

The record behind these values is patent US10953100B2, “Compounds and therapeutic uses thereof” (priority 2015, dated 2021).
